Results reported in ChEMBL document CHEMBL5579852, “Promising anti-proliferative indolic benzenesulfonamides alter mechanisms with sulfonamide nitrogen substituents” (Eur J Med Chem, 2024).
Active and inactive are the calls of the source. No cut-off for these calls is given here.

Columns and labels:
HT-1080 = experiment: Antiproliferative activity against human HT-1080 cells assessed as reduction in cell viability incubated for 72 hrs by CelltiterGlo luminescent assay; details: HT-1080, 72 h
MES-SA [1] = experiment: Induction of apoptosis in human MES-SA cells assessed as necrotic cells at 100 nM incubated for 24 hrs by live/dead orange and TUNEL staining based flow cytometry analysis relative to control; assay type: functional
BT-474 = experiment: Antiproliferative activity against human BT-474 cells assessed as reduction in cell viability incubated for 72 hrs by CelltiterGlo luminescent assay; details: BT-474, 72 h
[2] = Antiproliferative activity against human HEK293 cells assessed as reduction in cell viability incubated for 72 hrs by CelltiterGlo luminescent assay; assay type: toxicity, cell-based
[3] = Antiproliferative activity against human Melmet 5 cells assessed as reduction in cell viability incubated for 72 hrs by CelltiterGlo luminescent assay; details: Melmet 5, 72 h
MES-SA [4] = experiment: Cell cycle distribution in human MES-SA cells assessed as accumulation of cells in S phase cells at 100 nM incubated for 24 hrs by Hoechst 33258 staining based flow cytometry (reference value: 27 %); assay type: functional
MES-SA [5] = experiment: Induction of apoptosis in human MES-SA cells assessed as live cells at 100 nM incubated for 24 hrs by live/dead orange and TUNEL staining based flow cytometry analysis relative to control; assay type: functional
MCF7 = experiment: Antiproliferative activity against human MCF7 cells assessed as reduction in cell viability incubated for 72 hrs by CelltiterGlo luminescent assay; assay type: functional, cell-based; details: MCF7, 72 h
MDA-MB-468 = experiment: cells; details: Homo sapiens, MDA-MB-468, 72 h
Description: Antiproliferative activity against human MDA-MB-468 cells assessed as reduction in cell viability incubated for 72 hrs by CelltiterGlo luminescent assay

MES-SA [6] = experiment: Induction of apoptosis in human MES-SA cells assessed as apoptotic cells at 100 nM incubated for 24 hrs by live/dead orange and TUNEL staining based flow cytometry analysis relative to control; assay type: functional
MES-SA [7] = experiment: Cell cycle distribution in human MES-SA cells assessed as accumulation of cells in G2/M phase cells at 100 nM incubated for 24 hrs by Hoechst 33258 staining based flow cytometry (reference value: 13.3 %); assay type: functional
MES-SA [8] = experiment: Induction of apoptosis in human MES-SA cells assessed as increase in caspase 3/7 activation at 100 nM by live-cell imaging based fluorescence assay; assay type: functional; details: time 3.0 day, TDE = time-dependent effect
HeLa [9] = experiment: Antiproliferative activity against human HeLa cells assessed as reduction in cell viability incubated for 72 hrs by CelltiterGlo luminescent assay; assay type: functional, cell-based
HeLa [10] = experiment: Antiproliferative activity against human HeLa cells assessed as reduction in cell viability incubated for 72 hrs by MTT assay; assay type: functional, cell-based
A-375 = experiment: Antiproliferative activity against human A-375 cells assessed as reduction in cell viability incubated for 72 hrs by CelltiterGlo luminescent assay; details: A-375, 72 h
HeLa [11] = experiment: Antiproliferative activity against human HeLa cells assessed as inhibition of cell growth incubated for 72 hrs in presence of verapamil by MTT assay; assay type: functional, cell-based
cells = details: Homo sapiens, MDA-MB-468, 72 h
MES-SA [12] = experiment: Antiproliferative activity against human MES-SA cells assessed as reduction in cell viability incubated for 72 hrs by CelltiterGlo luminescent assay
MES-SA [13] = experiment: Induction of apoptosis in human MES-SA cells assessed as late apoptotic cells at 100 nM incubated for 24 hrs by live/dead orange and TUNEL staining based flow cytometry analysis relative to control; assay type: functional
Tubulin (Homo sapiens) = Tubulin (Homo sapiens) (UniProt P68371+Q9H4B7+P0DPH7+P68366+Q13509+Q71U36+P04350+Q3ZCM7+P07437+P68363+Q9BQE3+Q6PEY2+Q13885+Q9BVA1+Q9BUF5); experiment: Inhibition of tubulin polymerization in human MES-SA cells assessed as appearance of spherical shaped cells at 10 nM incubated for 24 hrs by DAPI staining based confocal microscopy analysis; assay type: cell-based
MES-SA [14] = experiment: Cell cycle distribution in human MES-SA cells assessed as accumulation of cells in G2 phase cells at 100 nM incubated for 24 hrs by Hoechst 33258 staining based flow cytometry (reference value: 12 %); assay type: functional
[15] = Antiproliferative activity against human RPE-1 cells assessed as reduction in cell viability incubated for 72 hrs by CelltiterGlo luminescent assay; assay type: toxicity, cell-based; details: RPE-1 cells (TERT-RPE1)
[16] = Antiproliferative activity against human Hermes 3C cells assessed as reduction in cell viability incubated for 72 hrs by CelltiterGlo luminescent assay; assay type: toxicity, cell-based
[17] = Antiproliferative activity against human WM1366 cells assessed as reduction in cell viability incubated for 72 hrs by CelltiterGlo luminescent assay; details: WM1366, 72 h
MES-SA [18] = experiment: Cell cycle distribution in human MES-SA cells assessed as accumulation of cells in G1 phase cells at 100 nM incubated for 24 hrs by Hoechst 33258 staining based flow cytometry (reference value: 60%); assay type: functional
MES-SA [19] = experiment: Cell cycle distribution in human MES-SA cells assessed as accumulation of cells in M phase cells at 100 nM incubated for 24 hrs by Hoechst 33258 staining based flow cytometry (reference value: 1.3 %); assay type: functional
HeLa [20] = experiment: Antiproliferative activity against human HeLa cells assessed as inhibition of cell growth incubated for 72 hrs in absence of verapamil by MTT assay; assay type: functional, cell-based
CAKI-1 = experiment: Antiproliferative activity against human CAKI-1 cells assessed as reduction in cell viability incubated for 72 hrs by CelltiterGlo luminescent assay; details: CAKI-1, 72 h

Structure (SMILES) | IC50 (HT-1080) [nM] | Activity (MES-SA [1]) [%] | IC50 (BT-474) [nM] | IC50 at 72 h [2] [nM] | IC50 [3] [nM] | Activity (MES-SA [4]) [%] | IC50 (MCF7) [nM] | IC50 (MDA-MB-468) [nM] | IC50 (HeLa [9]) [nM] | IC50 (HeLa [10]) [nM] | IC50 (A-375) [nM] | IC50 (HeLa [11]) [nM] | IC50 (cells) [nM] | IC50 (MES-SA [12]) [nM] | inhibition (Tubulin (Homo sapiens)) | IC50 at 72 h [15] [nM] | IC50 at 72 h [16] [nM] | IC50 [17] [nM] | IC50 (HeLa [20]) [nM] | IC50 (CAKI-1) [nM] | also measured
COc1cc(S(=O)(=O)N(C)c2ccc3c(c2)c(C(N)=O)cn3C)cc(OC)c1OC | 14.3 | 1.8 | 17.9 | 92.2 | 12.2 | 6 | 44 | 26 | 13.9 | 15 | 22.8 | 18.2 | 70.8 | 12.2 | Active | 22.7 | 31.8 | 21.3 | 24.3 | 29.6 | Activity (MES-SA [5]): 91.8%; Activity (MES-SA [6]): 4.8%; Activity (MES-SA [7]): 83.6%; Activity (MES-SA [8]): Tde; Activity (MES-SA [13]): 1.6%; Activity (MES-SA [14]): 10%; Activity (MES-SA [18]): 4%; Activity (MES-SA [19]): 75.3%
CC[C@]1(O)C[C@H]2CN(CCc3c([nH]c4ccccc34)[C@@](C(=O)OC)(c3cc4c(cc3OC)N(C=O)[C@H]3[C@@](O)(C(=O)OC)[C@H](OC(C)=O)[C@]5(CC)C=CCN6CC[C@]43[C@@H]65)C2)C1 [VINCRISTINE] | 0.3 |  | 2.9 | 25.8 | 0.2 |  | 4.2 | 0.4 | 1 |  | 3.5 |  |  | 4.9 | Active | 7.6 | 2.8 | 4.5 |  | 5.7 | 
COc1cc(S(=O)(=O)N(C)c2ccc3c(ccn3C)c2)cc(OC)c1OC | 11.8 | 3.4 | 34.5 | 12.3 | 12.9 | 6 | 15.8 | 24.4 | 14.5 | 3.2 | 17.5 | 40.9 | 67.6 | 9 | Active | 20 | 67.4 | 13.5 | 50.1 | 11 | Activity (MES-SA [5]): 90%; Activity (MES-SA [6]): 5.7%; Activity (MES-SA [7]): 83.6%; Activity (MES-SA [8]): Tde; Activity (MES-SA [13]): 0.9%; Activity (MES-SA [14]): 10%; Activity (MES-SA [18]): 4%; Activity (MES-SA [19]): 75.3%
COc1cc(S(=O)(=O)N(C)c2ccc3c(c2)c(C=O)cn3C)cc(OC)c1OC | 8.1 |  | 10.6 | 50.2 | 3.9 |  | 9.3 | 17.2 | 5.3 | 16.5 | 8.7 | 14.6 | 32.9 | 17.9 |  | 12 | 52.8 | 11.6 | 18.4 | 12.9 | 
COc1cc(S(=O)(=O)N(CC#N)c2ccc3c(c2)c(C(N)=O)cn3C)cc(OC)c1OC | 16.6 |  | 40.8 | 282 | 16.2 |  | 48.6 | 20.3 | 68.8 | 50.9 | 48.3 | 26.4 | 72.9 | 14.2 |  | 33 | 88.5 | 36 | 50.9 | 98.3 | 
COc1cc(S(=O)(=O)Nc2ccc3c(c2)c(C(N)=O)cn3C)cc(OC)c1OC | 69.2 |  | 126 | 492 | 29.5 |  | 108 | 101 | 93 | 102 | 245 | 55.4 | 284 | 99.9 |  | 173 | 466 | 278 | 102 | 310 | 
COc1cc(S(=O)(=O)Nc2ccc3c(ccn3C)c2)cc(OC)c1OC | 5.6 | 4.7 | 46.1 | 4.9 | 1.4 | 6 | 1.4 | 4.5 | 3.9 | 5.3 | 6.4 | 17.9 | 29.6 | 5.6 | inactive | 5.7 | 61 | 7.1 | 22.9 | 4 | Activity (MES-SA [5]): 90.3%; Activity (MES-SA [6]): 4.2%; Activity (MES-SA [7]): 83.6%; Activity (MES-SA [8]): Tde; Activity (MES-SA [13]): 0.8%; Activity (MES-SA [14]): 29%; Activity (MES-SA [18]): 4%; Activity (MES-SA [19]): 56.8%
